These results are taken from patent publication US20250122225A1, “MASP-2 INHIBITORS AND METHODS OF USE” (Omeros Corporation, priority 2023, published 2025).

Where a name gives a salt, the structure may show the parent alone.

Test [1] concerns the target T1, MASP-2 (CCP1-CCP2-SP) (Homo sapiens, UniProt O00187).
T1 construct: 15 μL of Enzyme MASP-2 (CCP1-CCP2-SP) in Assay Buffer
The experiment in a line: Enzymatic assay for MASP-2 inhibitory activity (fluorogenic substrate). The test is classed as biochemical. The procedure, abridged:
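MASP-2 (CCP1-CCP2-SP) cleaved a fluorogenic substrate based on the C2 cleavage site in 20 mM HEPES pH 7.4, 140 mM NaCl, 0.1% Tween 20 at room temperature. After 20 min the reaction was stopped with 0.1 M acetic acid and fluorescence read. % activity was normalized to DMSO-only and no-enzyme controls; IC50 taken as Ki.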

Test [2] deals with T2, human α-thrombin (Homo sapiens, UniProt P00734).
T2 construct: enzyme (human α-thrombin (BioPharm® Lab.)) in assay buffer; purchased BioPharm® Lab
The experiment in a line: Enzymatic assay for thrombin (fluorogenic peptide substrate Boc-VPR-AMC). Type of test: biochemical. The procedure, abridged: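 Human α-thrombin was run with the fluorogenic substrate Boc-VPR-AMC in 20 mM Hepes pH 7.4, 140 mM NaCl, 0.1% Tween 20 at room temperature for 20 min, then stopped with 0.1 M acetic acid. % activity was normalized to DMSO and no-enzyme controls. Under linear conditions IC50 equalled Ki, except for tight-binding inhibitors.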

T1 sequence (O00187 445-686 limits assumed): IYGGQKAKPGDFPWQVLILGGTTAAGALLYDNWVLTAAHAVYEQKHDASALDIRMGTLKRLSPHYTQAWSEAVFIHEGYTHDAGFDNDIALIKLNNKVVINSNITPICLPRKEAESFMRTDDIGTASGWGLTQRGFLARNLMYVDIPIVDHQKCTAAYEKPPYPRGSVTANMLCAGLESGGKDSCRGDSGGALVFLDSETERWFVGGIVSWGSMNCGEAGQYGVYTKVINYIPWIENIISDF
T1 sequence (O00187 287-444 partner limits assumed): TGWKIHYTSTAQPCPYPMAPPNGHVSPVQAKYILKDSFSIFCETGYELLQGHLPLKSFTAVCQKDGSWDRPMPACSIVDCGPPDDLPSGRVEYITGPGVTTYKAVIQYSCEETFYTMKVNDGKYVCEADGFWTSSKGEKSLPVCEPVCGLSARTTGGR

For orientation: Ki means the dissociation constant of the complex between target and ligand, obtained from inhibition or displacement. In the case of `CC(C)(C)[C@@H](Nc1ncc2n(c1=O)[C@H](C(=O)NCc1cc3c(s1)CNC3)CC2)c1ccc(F)cc1` [Compound 280, (S)—N-((5,6-dihydro-4H-thieno[2,3-c]pyrrol-2-yl)methyl)-3-(((R)-1-(4-fluorophenyl)-2,2-dimethylpropyl)amino)-4-oxo-4,6,7,8-tetrahydropyrrolo[1,2-a]pyrazine-6-carboxamide], the Ki in test [1] and in test [2] was under 500 nM in each case.
As to `Cc1cc(C)cc(CNc2ncc3n(c2=O)[C@H](C(=O)NCc2ccc4[nH]ncc4c2)CC3)c1` [Compound 281, (S)—N-((1H-indazol-5-yl)methyl)-3-((3,5-dimethylbenzyl)amino)-4-oxo-4,6,7,8-tetrahydropyrrolo[1,2-a]pyrazine-6-carboxamide], the Ki in test [1] was under 500 nM; in test [2], 500 to 2500 nM.
On the same counts, the results for `Cc1cc(C)cc(CNc2ncc3n(c2=O)[C@H](C(=O)NCc2cccc4[nH]ncc24)CC3)c1` [Compound 282, (S)-N-((1H-indazol-4-yl)methyl)-3-((3,5-dimethylbenzyl)amino)-4-oxo-4,6,7,8-tetrahydropyrrolo[1,2-a]pyrazine-6-carboxamide] are 500 to 2500 nM and 2500 to 10000 nM.
In the case of `Cc1cc(C)cc(CNc2ncc3n(c2=O)[C@H](C(=O)NCc2cc(Cl)ccc2-n2cnnn2)CC3)c1` [Compound 284, (S)-N-(5-chloro-2-(1H-tetrazol-1-yl)benzyl)-3-((3,5-dimethylbenzyl)amino)-4-oxo-4,6,7,8-tetrahydropyrrolo[1,2-a]pyrazine-6-carboxamide], the Ki in test [1] and in test [2] was under 500 nM in each case.
With `O=C(NCc1cc2c(s1)CNC2)[C@@H]1CCc2cnc(NCc3cccc(-c4ccccc4)c3)c(=O)n21` [Compound 285, (S)-3-(([1,1′-biphenyl]-3-ylmethyl)amino)-N-((5,6-dihydro-4H-thieno[2,3-c]pyrrol-2-yl)methyl)-4-oxo-4,6,7,8-tetrahydropyrrolo[1,2-a]pyrazine-6-carboxamide trifluoroacetate], the Ki in test [1] is under 500 nM; in test [2], 500 to 2500 nM.
Take `Cc1ccccc1CNc1ncc2n(c1=O)[C@H](C(=O)NCc1cc3c(s1)CNC3)CC2` [Compound 286, trifluoroacetate]: the Ki is under 500 nM in test [1] and 500 to 2500 nM in test [2].
